Results as given in patent US6159953A, “Anti-malarial composition and method of use” (Catholic University of America, priority 1992, dated 2000).
Where two headings read alike, the source gives them in different places.

Key:
[1] = test system: Plasmodium falciparum, Indochina clone W2; test: microbe, parasite or virus in culture; conditions: for IC50: Plasmodium falciparum
Experimental: In the antimalarial experiment with parasites, incorporation of radioactivity from [G-^3 H]-hypoxanthine into nucleic acids served as a measure of parasite proliferation. […] Each data point represents an average of two determinations. In the study of toxicity to human cells, proliferation of cells was determined directly by measuring the number of viable cells per well. […] Each data point represents an average of two determinations. 5-fluoro-orotate (.circle-solid.), 5-fluorouracil (.box-solid.), 5-fluorouridine (.tangle-solidup.), and 5-fluoro-2'-deoxyuridine (.diamond-solid.).
(§1) Half shaded symbols represent overlapping data points.
3. Effects of pyrimidine analogues alone or in combination with normal pyrimidine bases or nucleosides or with amino acid derivatives can be tested in malaria parasite-infected erythrocytes. Varying concentrations of pyrimidine analogues in culture medium are added to individual wells of microtitre plates [Desjardins, R. E. et al., Antimicrob. […] Parasitemic erythrocytes in culture medium are added to each well. […] As an alternative to adding a radioactive precursor of nucleic acid biosynthesis, the end point for determining the effects of added drugs can be the incorporation of a radioactive amino acid, e.g., [U-^14 C]-isoleucine, into parasite protein.
Fluoropyrimidines, dispersed in 25 μl of culture medium, were added to individual wells of a 96-well microtitre plate. […] Finally, the incorporation of 0.5 μCi of [G-^3 H]hypoxanthine (1 Ci/mmol) into nucleic acids in each well was determined; this served as a measure of parasite proliferation.

[2] = test system: Plasmodium falciparum, Sierra Leone clone; test: [U-14C]-isoleucine incorporation into parasite protein, Sierra Leone clone; format: cell-based, P. falciparum; conditions: Table 2, isoleucine uptake
Experimental: 3. […] Agents Chemotherap., 16:710-18 (1979)].
The chloroquine-sensitive Sierra Leone clone of P. falciparum was cultured in erythrocytes as in Example 1 above. In one method of determining the toxicity of 5-fluoro-orotate, [G-^3 H]-hypoxanthine uptake was used as an indicator of parasite proliferation, according to the procedure of Example 1 above. In a second method, the increase in parasitemia was determined directly by smearing infected erythrocytes on microscope slides, staining with Giemsa stain, and determining the ratio of infected to non-infected erythrocytes. In a third method, parasite-infected erythrocytes were incubated with [U-^14 C]-isoleucine (0.5 μCi; 0.33 Ci/mmol), and the amount of radioactivity incorporated into precipitable proteins determined.

[3] = test system: HT-1080 human fibrosarcoma cells; test: Toxicity to cultured HT-1080 cells, number of viable cells; format: cell-based; conditions: for IC50: Homo sapiens
Experimental: Each data point represents an average of two determinations. […] Each data point represents an average of two determinations.
as §1
Toxicity of pyrimidine analogues to cultured human cells is determined as follows. Mammalian cells are seeded into culture plate wells, and growth medium is added. The following day, fresh culture medium containing the appropriate pyrimidine analogues is added to the wells, and the plates incubated for a period of time and at a temperature appropriate to the cell line and the experimental requirements. Thereafter, the number of cells in each well is determined. […] Cells that grow in suspension (e.g., HL-60 and L-1210 cells) are transferred to centrifuge tubes, pelleted at low speed, washed, and the viability determined as above.
HT-1080 cells were seeded into 6-well culture plates at a density of 50,000 cells per 9.6 cm^2 well. Each well contained 2.5 ml of growth medium. […] After 1 minute, the detached cells were suspended in 1.0 ml of EMEM and collected by centrifugation at 300×g for 3 minutes. […] The concentrations of viable cells were determined in a hemocytometer.

## O=C(O)c1[nH]c(=O)[nH]c(=O)c1F [5-fluoro-orotate]
[1]; Indochina clone W-2, 48 h, 1 mM uridine (FIG. 2)
  effect of uridine on cytotoxicity towards malarial parasites: no effect
[1]; W2
  IC50: 0.006 ± 0.0017 µM
[1]; W2, 48 h
  IC50: 0.006 µM
[1]; multidrug-resistant Indochina clone
  times more active than chloroquine: 21 times
[2]
  IC50: 0.0047 µM
[3]; HT-1080, 48 h, simultaneous 1 mM uridine (FIG. 2)
  decrease of cytotoxicity by 1 mM uridine: 5 -fold
[3]; HT-1080, 48 h, read-out: IC50 (50% inhibition)
  IC50: ~10 µM
[3]; HT-1080, read-out: IC50 With 1 mM Uridine
  IC50: 50 µM
[3]; HT-1080, read-out: IC50 Without Uridine
  IC50: 10 µM
